Earlier results as cited in US20140030313A1, “TREATMENT OF MENSTRUAL PAIN AND EXCESSIVE MENSTRUAL BLOOD LOSS BY INTRAVAGINAL ADMINISTRATION OF A LOW DOSE OF ANTIFIBRINOLYTIC OR HEMOSTATIC AGENT IN COMBINATION WITH NON-STEROIDAL ANTI-INFLAMMATORY DRUG” (ARSTAT Inc., priority 2011, published 2014).
One block for each compound: values may come before it.

What was measured:
[1] = intravaginal tampon at 20% of the oral dose, vs oral capsules
[2] = not given; remark: listed apart in the source
[3] = not given; remark: listed apart in the source
[4] = oral, 6 g/day

Compound: NC[C@H]1CC[C@H](C(=O)O)CC1 [Lysteda]
- subjects returned to normal MBL after treatment (mean on-treatment MBL of less than 80 mL) (Lysteda NDA medical review): 44%
- MBL reduction targets established by the FDA (oral, 3900 mg/day regimen): meets MBL reduction targets established by the FDA

Compound: Cc1cccc(Nc2ccccc2C(=O)O)c1C [mefenamic acid]
- pain relief [1]: pain relief equivalent to that achieved with the oral capsules

- plasma concentrations ([3]; after a mouth rinse): below 2 mcg/mL
- saliva concentrations, maximum level ([3]; after a mouth rinse): above 200 mcg/mL
- time saliva concentration remained at a therapeutic level ([3]; after a mouth rinse): more than two hours
- drug in saliva samples ([3]; after an oral tablet): not detected
- mean drug plasma concentrations ([3]; after an oral tablet): 7000 ng/mL
Compound: NC[C@H]1CC[C@H](C(=O)O)CC1 [tranexamic acid]
- difference to placebo in reduction of large stains, small and large clots and changes in serum ferritin levels (tranexamic acid vs placebo treatment): no statistically significant differences
- incidence of postoperative bleeding complications ([2]; mouthwash, compared to placebo): reduce the incidence of postoperative bleeding complications
- risk of gastrointestinal adverse events [4]: increased

Compound: aprotinin
- plasma drug levels ([2]; locally administered): without detectable plasma drug levels
- postoperative blood loss ([2]; locally administered): Reduction of the postoperative blood loss
